Measurements taken from patent US20040044006A1, “Methods of use of quinolone compounds against pneumococcal and haemophilus bacteria” (priority 1999, published 2004).
Read-outs that look alike come from different tables or passages of the source.

Columns and labels:
[1] = system: pneumococci with ciprofloxacin MICs ≧8 μg/ml; experiment: Quinolone agar dilution MICs of 28 ciprofloxacin resistant pneumococcal strains, correlated with QRDR mutations; assay type: cell-based, Streptococcus pneumoniae
Method: Additionally these strains were tested for mutations in parC, gyrA, parE, and gyrB (Pan, et al. Antimicrob. Agents Chemother. 40:2321-2326, 1996) and for efflux mechanism (Brenwald, et ail., Antimicrob. Agents Chemother. 42:2032-2035, 1998).
Gemifloxacin susceptibility powder was obtained from SmithKline Beecham Laboratories, Harlow, UK. Agar dilution methodology was performed on 28 strains as described previously (M. R. Jacobs, Clin. Infect. Dis. 15: 119-127, […] and M. R. Jacobs, Rev. Med. Microbiol. 6:77-93, 1995), using Mueller-Hinton altar (BBL Microbiology Systems, Cockeysville, Md.) supplemented with 5% sheep blood. Standard quality control strains, including Streptococcus pneumoniae ATCC 49619, were included in each run of agar dilution MICs.

[2] = system: pneumococci (5 quinolone susceptible and 1 resistant strains); experiment: Post-antibiotic effect (PAE) testing; assay type: cell-based, Streptococcus pneumoniae
Method: The post-antibiotic effect (PAE) (Craig, et al., V. Lorian (ed.) Antibiotics in Laboratory Medicine, Williams and Wilkins, Baltimore, pages 296-399, 1996) was determined by the viable plate count method, using Mueller-Hinton broth (MHB) supplemented with 5% lysed horse blood when testing pneumococci. […] Additionally, the one quinolone resistant strain was exposed at quinolone concentrations 5×MIC. Tubes containing 5 ml broth with antibiotic were inoculated with approximately 5×10^6 cfu/ml. Growth controls with inoculum but no antibiotic were included with each experiment. Tubes were placed in a shaking water bath at 35° C. for 1 h. At the end of the exposure period, cultures were diluted 1:1000 to remove antibiotic.
Viability counts were determined before exposure and immediately after dilution (0 h), and then every 2 h until tube turbidity reached a #1 McFarland standard. Inocula were prepared by suspending growth from an overnight blood agar plate in broth. The broth was incubated at 35° C. for 2-4 h in a shaking water bath until turbidity matched a #1 McFarland standard, and checked for viability by plate counts (Spangler, et al., Antimicrob. Agents Chemother. 41:2173-9176, 1997; Spangler, et al., Antimicrob. Agents Chemother. 42:1253-1255, 1998).
The PAE was defined as PAE=T-C; T=time required for viability counts of an antibiotic-exposed culture to increase by 1 log10 above counts immediately after dilution; C=corresponding time for growth control. For each experiment, viability counts (log10 cfu/ml) were plotted against time, and results expressed as the mean of two separate assays±S D (Craig, et al., V. Lorian (ed), Antibiotics in Laboratory Medicine, Williams and Wilkins, Baltimore, pages 296-329, 1996).

[3] = system: quinolone-resistant Haemophilus influenzae strains; experiment: Microdilution MIC determination in HTM for quinolone-resistant Haemophilus influenzae strains; assay type: cell-based
Method: Inocula were prepared from chocolate agar plates incubated for a full 24 hours by the direct colony suspension method as follows: In a tube of Mueller-Hinton broth (Difco), an organism suspension was made to a density of a 0.5 McFarland standard (1×10^8 CFU/ml). The latter inoculum was diluted in sterile saline such that final organisms suspensions in trays yielded colony counts of 3-8×10^5 CFU/ml. Frozen microdilution trays were obtained from MicroMedia Systems, Inc. (Cleveland, Ohio, USA). Each tray contained all antimicrobials prepared in freshly made HTM. Wells were inoculated with 100 μl suspensions and incubated in ambient air at 35° C. for 20-24 hours. The lowest drug concentration showing no growth was read as the MIC. Standard quality control strains, including H. influenzae ATCC 49766, H. influenzae ATCC 49247, Staphylococcus aureus ATCC 29213 and Escherichia coli ATCC 25922 were included with each run.

[4] = Streptococcus pneumoniae, read-out: MICs in strains with three or four QRDR mutations, 20 strains, bound holds in all 20 (ciprofloxacin, levofloxacin, sparfloxacin), 19 (grepafloxacin), 10 (trovafloxacin), 18 (gemifloxacin)
[5] = Streptococcus pneumoniae, read-out: MICs in strains with three or four QRDR mutations, 21 strains, bound holds in all 21 (ciprofloxacin, levofloxacin, sparfloxacin), 20 (grepafloxacin), 11 (trovafloxacin), 19 (gemifloxacin)
[6] = Streptococcus pneumoniae, strain 2, ParC S79-Y, ParE I460-V, GyrA None, GyrB None
[7] = Streptococcus pneumoniae, strain 3, ParC D83-N, ParE I460-V, GyrA S81-F, GyrB None
[8] = Streptococcus pneumoniae, strain 3, ParC D83-N, ParE I460-V, GyrA S83-F, GyrB None
[9] = Streptococcus pneumoniae, strain 4, ParC S79-F, ParE I460-V, GyrA S81-F, GyrB None
[10] = Streptococcus pneumoniae, strain 4, ParC S79-F, ParE I460-V, GyrA S83-F, GyrB None
[11] = Streptococcus pneumoniae, strain 5, ParC R95-C, ParE D435-N, GyrA S81-F, GyrB None
[12] = Streptococcus pneumoniae, strain 5, ParC R95-C, ParE D435-N, GyrA S83-F, GyrB None
[13] = Streptococcus pneumoniae, strain 6, ParC S79-Y, ParE I460-V, GyrA E85-K, GyrB None
[14] = Streptococcus pneumoniae, strain 6, ParC S79-Y, ParE I460-V, GyrA E87-K, GyrB None
[15] = Streptococcus pneumoniae, strain 7, ParC None, ParE I460-V, GyrA None, GyrB None
[16] = Streptococcus pneumoniae, strain 8, ParC S79-Y, ParE None, GyrA None, GyrB None
[17] = Streptococcus pneumoniae, strain 9, ParC S79-Y, ParE None, GyrA None, GyrB None
[18] = Streptococcus pneumoniae, strain 10, ParC S79-F, ParE I460-V, GyrA S81-C, GyrB None
[19] = Streptococcus pneumoniae, strain 10, ParC S79-F, ParE I460-V, GyrA S83-C, GyrB None
[20] = Streptococcus pneumoniae, strain 11, ParC S79-F, ParE I460-V, GyrA S81-F, GyrB None
[21] = Streptococcus pneumoniae, strain 11, ParC S79-F, ParE I460-V, GyrA S83-F, GyrB None
[22] = Streptococcus pneumoniae, strain 12, ParC S79-F, ParE I460-V, GyrA None, GyrB D435-N
[23] = agar dilution, 28 strains with ciprofloxacin MICs ≧8.0 μg/ml
[24] = 5×MIC, quinolone resistant strain
[25] = 10×MIC for 1 h, range over 5 quinolone susceptible strains
[26] = 9 quinolone-resistant Haemophilus influenzae strains

CO/N=C1\CN(c2nc3c(cc2F)c(=O)c(C(=O)O)cn3C2CC2)CC1CN (racemic) [Gemifloxacin, (R,S)-7-(3-aminomethyl-4-methoxyiminopyrrolidin-1-yl)-1-cyclopropyl-6-fluoro-4-oxo-1,4-dihydro-1,8-naphthyridine-3-carboxylic acid]
0.03 µg/mL: MIC ([3]; Haemophilus influenzae, read-out: MICs, strain 1, GyrA S84→L, ParC S133→A N138→S, GyrB None, ParE None)
0.5 µg/mL: MIC90 ([1]; Streptococcus pneumoniae) | MIC ([3]; Haemophilus influenzae, read-out: MICs, strain 6, GyrA S84→L A117→E, ParC S84→R, GyrB None, ParE D420→N) | MIC ([3]; Haemophilus influenzae, read-out: MICs, strain 7, GyrA S84→L A117→E, ParC S84→R, GyrB None, ParE D420→N) | MIC ([3]; Haemophilus influenzae, read-out: MICs, strain 8, GyrA S84→L A117→E, ParC S84→R, GyrB None, ParE D420→N)
0.4 to 1.6 h: PAE [2, 25]
< 0.5 µg/mL: MIC [1, 4]
0.03 to 1.0 µg/mL: MIC Range [1, 23] | MIC Range [3, 26]
0.9 h: PAE [2, 24]
≤ 0.5 µg/mL: MIC [1, 5]
0.125 µg/mL: MIC [1, 11] | MIC [1, 12] | MIC [1, 13] | MIC [1, 14] | MIC [1, 15] | MIC [1, 16] | MIC [1, 17] | MIC [1, 18] | MIC [1, 19] | MIC [1, 20] | MIC [1, 21] | MIC [1, 22] | MIC ([3]; Haemophilus influenzae, read-out: MICs, strain 2, GyrA S84→F, ParC None, GyrB None, ParE S458→L) | MIC ([3]; Haemophilus influenzae, read-out: MICs, strain 3, GyrA S84→L, ParC S84→I, GyrB None, ParE None)
1 µg/mL: MIC ([1]; Streptococcus pneumoniae, strain 27, ParC S79-Y, ParE I460-V, GyrA S81-F, GyrB None) | MIC ([1]; Streptococcus pneumoniae, strain 27, ParC S79-Y, ParE I460-V, GyrA S83-F, GyrB None) | MIC ([1]; Streptococcus pneumoniae, strain 28, ParC D83-G N91-D, ParE None, GyrA S81-F S114-G, GyrB None) | MIC ([1]; Streptococcus pneumoniae, strain 28, ParC cell empty, ParE None, GyrA S83-F and S116-G, GyrB None) | MIC ([3]; 9 quinolone-resistant Haemophilus influenzae strains, read-out: highest MIC)
0.25 µg/mL: MIC50 ([1]; Streptococcus pneumoniae) | MIC50 [3, 26] | MIC ([3]; Haemophilus influenzae, read-out: MICs, strain 4, GyrA S84→F D88→N, ParC D83→N, GyrB None, ParE T459→S) | MIC ([3]; Haemophilus influenzae, read-out: MICs, strain 5, GyrA S84→Y, ParC E88→K, GyrB Q468→R, ParE G405→S)
≤ 1.0 µg/mL: MIC Range ([3]; 9 quinolone-resistant Haemophilus influenzae strains, listed as gemifloxacin)
0.06 µg/mL: MIC [1, 6] | MIC [1, 7] | MIC [1, 8] | MIC [1, 9] | MIC [1, 10]

Cc1c(F)c(N2CCNC(C)C2)cc2c1c(=O)c(C(=O)O)cn2C1CC1 (stereo not drawn) [Grepafloxacin, grepafloxacin]
8 µg/mL: MIC90 ([1]; Streptococcus pneumoniae)
0.5 to 16.0 µg/mL: MIC Range [1, 23]
0.3 to 2.6 h: PAE [2, 25]
8.0 µg/mL: MIC90 [1, 23]
2 µg/mL: MIC [1, 13] | MIC [1, 14] | MIC [1, 18] | MIC [1, 19] | MIC ([1]; Streptococcus pneumoniae, strain 13, ParC S79-F, ParE I460-V, GyrA None, GyrB E474-K)
4 µg/mL: MIC50 ([1]; Streptococcus pneumoniae) | MIC ([1]; Streptococcus pneumoniae, strain 1, ParC S79-F, ParE I460-V, GyrA S81-F, GyrB None) | MIC ([1]; Streptococcus pneumoniae, strain 1, ParC S79-F, ParE I460-V, GyrA S83-F, GyrB None) | MIC [1, 20] | MIC [1, 21] | MIC [1, 22] | MIC ([1]; Streptococcus pneumoniae, strain 14, ParC S79-F, ParE I460-V, GyrA S81-F, GyrB None) | MIC ([1]; Streptococcus pneumoniae, strain 14, ParC S79-F, ParE I460-V, GyrA S83-F, GyrB None) | MIC ([1]; Streptococcus pneumoniae, strain 15, ParC 79-F, ParE I460-V, GyrA S83-F, GyrB None) | MIC ([1]; Streptococcus pneumoniae, strain 15, ParC S79-F, ParE I460-V, GyrA S81-F, GyrB None) | MIC ([1]; Streptococcus pneumoniae, strain 16, ParC S79-F, ParE I460-V, GyrA S81-F, GyrB None) | MIC ([1]; Streptococcus pneumoniae, strain 16, ParC S79-F, ParE I460-V, GyrA S83-F, GyrB None) | MIC ([1]; Streptococcus pneumoniae, strain 17, ParC D83-N, ParE None, GyrA S81-F, GyrB None) | MIC ([1]; Streptococcus pneumoniae, strain 17, ParC D83-N, ParE None, GyrA S83-F, GyrB None) | MIC ([1]; Streptococcus pneumoniae, strain 18, ParC S79-F, ParE I460-V, GyrA S81-F, GyrB None) | MIC ([1]; Streptococcus pneumoniae, strain 18, ParC S79-F, ParE I460-V, GyrA S83-F, GyrB None) | MIC ([1]; Streptococcus pneumoniae, strain 19, ParC S79-F, ParE I460-V, GyrA S81-F, GyrB None) | MIC ([1]; Streptococcus pneumoniae, strain 19, ParC S79-F, ParE I460-V, GyrA S83-F, GyrB None) | MIC ([1]; Streptococcus pneumoniae, strain 20, ParC S79-F, ParE I460-V, GyrA E85-K, GyrB None) | MIC ([1]; Streptococcus pneumoniae, strain 20, ParC S79-F, ParE I460-V, GyrA E87-K, GyrB None) | MIC ([1]; Streptococcus pneumoniae, strain 21, ParC S79-F, ParE I460-V, GyrA S81-F, GyrB None) | MIC ([1]; Streptococcus pneumoniae, strain 21, ParC S79-F, ParE I460-V, GyrA S83-F, GyrB None) | MIC ([1]; Streptococcus pneumoniae, strain 22, ParC S79-F, ParE I460-V, GyrA S81-Y, GyrB None) | MIC ([1]; Streptococcus pneumoniae, strain 22, ParC S79-F, ParE I460-V, GyrA S83-Y, GyrB None)
1.5 h: PAE [2, 24]
> 1 µg/mL: MIC [1, 4]
4.0 µg/mL: MIC50 [1, 23]
0.5 µg/mL: MIC [1, 6] | MIC [1, 7] | MIC [1, 8]
0.25 to 4.0 µg/mL: MIC Range [3, 26]
≥ 1 µg/mL: MIC [1, 5]
1 µg/mL: MIC [1, 9] | MIC [1, 10] | MIC [1, 11] | MIC [1, 12] | MIC [1, 15] | MIC [1, 16] | MIC [1, 17] | MIC50 [3, 26]
0.5 to 16 µg/mL: MIC Range ([1]; agar dilution, 28 strains with ciprofloxacin MICs ≧8.0 μg/ml, listed as grepafloxacin)
